The values that follow come from ChEMBL document CHEMBL3886663, “COMPOUNDS AND USES” (2016).

In this experiment the target is T1, Leukotriene C4 synthase (Homo sapiens, UniProt Q16873).
T1 sequence (Q16873 whole entry): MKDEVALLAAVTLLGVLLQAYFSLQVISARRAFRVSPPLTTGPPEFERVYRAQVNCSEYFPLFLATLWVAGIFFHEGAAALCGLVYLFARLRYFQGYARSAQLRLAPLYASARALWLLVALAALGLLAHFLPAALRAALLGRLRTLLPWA
In words: Recombinant human LTC4 synthase is expressed in […] and the purified enzyme is dissolved in 25 mM tris-buffer pH 7.8 supplemented with 0.1 mM glutathione (GSH) and stored at −80 °C. […] The buffer is used as background. Runs are performed in duplicates. […] The reaction is stopped after 1 min by addition of double the reaction volume of a stop solution (MeOH:H2O:acetic acid 70:30:1).
Regarding `COc1cc(N(Cc2cc(Cl)cc3c2OCO3)CC2CC2)cnc1C(=O)C1CC1C(=O)O` (stereo not given), the IC50 (usually the concentration that gives 50% inhibition) is 588 nM.

In the case of `COc1cc(N(Cc2ccc(C(F)(F)F)cc2F)CC2CC2)cnc1C(=O)C1CC1C(=O)O` (stereo not given), the IC50 amounted to 53 nM. On to `COc1cc(N(Cc2ccc(-c3ccccc3)cc2)CC2CC2)cnc1C(=O)C1CC1C(=O)O` (stereo not given), for which the IC50 stood at 2180 nM. Consider `COc1cc(N(Cc2cccc3ccccc23)CC2CC2)cnc1C(=O)C1CC1C(=O)O` (stereo not given), for which the IC50 was 66 nM. The result for `COc1cc(N(Cc2cccc(C)c2)CC2CC2)cnc1C(=O)C1CC1C(=O)O` (stereo not given) reads 171 nM; that for `COc1cc(N(CC2CC2)c2cccc3c(C)ccnc23)cnc1C(=O)C1CC1C(=O)O` (stereo not given), 445 nM.

On to `COc1cc(N(Cc2ccc(C)cc2)CC2CC2)cnc1C(=O)C1CC1C(=O)O` (stereo not given), for which the IC50 stood at 22 nM. For the molecule `COc1cc(N(Cc2cc(F)cc3c2OCOC3)CC2CC2)cnc1C(=O)C1CC1C(=O)O` (stereo not given), the IC50 came to 478 nM. As for `COc1cc(N(Cc2c(Cl)cccc2Cl)CC2CC2)cnc1C(=O)C1CC1C(=O)O` (stereo not given), the IC50 was found to be 800 nM. To `COc1cc(N(CC2CC2)c2ccc(C)c3ccccc23)ncc1C(=O)C1CC1C(=O)O` (stereo not given) belongs 56 nM.
